Consider three molecules from article PMC11305387, “AlphaFold accelerated discovery of psychotropic agonists targeting the trace amine–associated receptor 1” (Science Advances, 2024).

Where only a bound is given, the exact number is not on record here.

For experiment [1], the system named is WT and TAAR1-KO mice. Nature of the experiment: Pre-pulse inhibition (PPI) behavioral assay. The experiment is classed as in vivo. The note with it: compound 65 1 mg/kg, risperidone 0.2 mg/kg i.p. On the procedure: Measurements were performed using startle response chambers (San Diego Instruments, San Diego, CA, USA). Each chamber is sound-isolated and contains a Plexiglass animal enclosure attached to a platform and a loudspeaker that can produce both continuous white noise and acoustic pulses of varying intensities. The animal enclosure is large enough for the animal to turn around and make other movements to reduce restraint stress. Mouse startle responses to acoustic stimuli are transformed by a piezoelectric transducer under the platform into an analog signal. The transducers were calibrated before each experiment using a standardization unit (San Diego Instruments, San Diego, CA, USA), and the speakers were calibrated using a Type 2670 Microphone Preamplifier, a Type 4230 Sound Level Calibrator, and a Type 2610 Measuring Amplifier (Brüel & Kjær, Nærum, Denmark). To habituate the mice to the chambers, they were placed in the enclosure for 5 min, with 65-dB background white noise, on three different days before the start of experiments. PPI measurements were then conducted on each mouse on four occasions separated by 96 hours. The first occasion was a mock test session where all mice were injected with vehicle, serving to reduce the effect of novelty on subsequent sessions. The next three sessions were true test sessions with injection of either compound 65, risperidone, or vehicle. The R package agricolae was used to generate a randomized block design, randomizing treatment order across sex, genotype, and test session.
Animals were brought to the testing room for habituation 60 min before the starting of tests. Thirty minutes before PPI measurements, mice were injected with either compound 65 (1 mg/kg), risperidone (0.2 mg/kg), or vehicle intraperitoneally. Each test session started with a 5-min background noise (65-dB white noise) habituation period. The background noise continued throughout the test session. The habituation period was followed by four blocks of trials, with the first and last blocks consisting of five pulse-only trials (40-ms, 120-dB pulse). During block 2, five trial types were presented five times each in a pseudo-randomized order. The trial types included pulse only, no stimulus (NOSTIM), and three different pre-pulse trials in which 20 ms pre-pulses of different intensities (68, 71, or 77 dB) preceded the startle pulse (120 dB) by a 100-ms interval. Block 3 contained the same numbers and types of trials as block 2, but in a different pseudorandom order. […] PPI data are shown as PPI%, which was calculated as [1 − (pre-pulse trials/startle-only trials)] × 100. Mean PPI was calculated by adding the average PPI% for all pre-pulse intensities (3, 6, and 12 dB) and dividing it by the number (i.e., 3) of pre-pulse intensities.

In experiment [2] the test system is WT and TAAR1-KO mice. Nature of the experiment: Open-field test: baseline locomotion and MK-801-induced hyperlocomotion. The note with it: compound 65 1 mg/kg, risperidone 0.03 mg/kg. In kind it is in vivo. On the procedure: To assess the influence of the compound on baseline locomotion and MK-801–induced hyperlocomotion, mice were subjected to open-field testing on four occasions separated by 96 hours. The first occasion was a mock test session where all mice were injected with vehicle only, serving to reduce the effect of novelty on subsequent sessions. The next three sessions were true test sessions with pretreatment of either compound 65, risperidone, or vehicle, followed by MK-801. The R package agricolae was used to generate a randomized block design, randomizing treatment order across sex, genotype, and test session. After injection with either compound 65 (1 mg/kg), risperidone (0.03 mg/kg), or vehicle intraperitoneally, mice were immediately placed in the open field and recorded for 15 min. They were then injected with MK-801 (0.35 mg/kg intraperitoneal) and recorded again for 60 min. The OFT arena measured 46 cm by 46 cm with gray floor and walls. The brightness at the center of each arena was 30 to 50 lux. The arenas were cleaned with 70% ethanol between each animal. Video from a camera mounted in the ceiling was analyzed using EthoVision XT11.5 (Noldus) software.

The target in another experiment is T1, hTAAR1 (Homo sapiens, UniProt Q96RJ0).
T1 construct: expressed in transfected cells; host or cells: Expi293F
T1 sequence (Q96RJ0 1-339): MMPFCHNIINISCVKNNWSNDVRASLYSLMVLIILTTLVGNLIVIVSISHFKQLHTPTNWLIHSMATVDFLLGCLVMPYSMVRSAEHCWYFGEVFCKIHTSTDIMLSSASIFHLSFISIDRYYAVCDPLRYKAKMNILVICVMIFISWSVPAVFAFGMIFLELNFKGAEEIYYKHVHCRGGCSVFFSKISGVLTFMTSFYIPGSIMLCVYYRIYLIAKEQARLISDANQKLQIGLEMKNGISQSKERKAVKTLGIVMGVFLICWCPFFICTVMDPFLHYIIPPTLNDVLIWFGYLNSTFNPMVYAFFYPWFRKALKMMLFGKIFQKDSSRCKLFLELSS
The experiment is described as follows: G protein (mini-Gs) recruitment luminescence complementation assay, agonist mode. The experiment is classed as cell-based. The procedure: The 62 predicted ligands were purchased from commercial vendors and tested for activity at a concentration of 20 μM in a luminescence complementation–based assay measuring recruitment of mini-Gs to the human TAAR1 ([38]).
To monitor TAAR1 activation by compounds, we used our previously described system. […] Cells were then reseeded in solid white, 96-well plates (Corning) with 90 μl of cell suspension per well. Luminescence was read using a plate reader for 5 min (SPARK 10 M, Tecan) before the addition of compounds to ensure signal stability. Ten microliters of each compound diluted in DPBS was added, and luminescence from each well was read for 10 min, with 100-ms read time per well. The A2AR counter-screen was performed using the same protocol. In these experiments, the hTAAR1 was replaced by a C-terminally SmBiT-tagged hA2AR construct.

In a further experiment the target is T2, 5-HT1D receptor (Homo sapiens, UniProt P28221).
T2 construct: TANGO fusion module (own knowledge, Kroeze et al.: C-terminal V2 tail, TEV site and tTA); 1000000068; host or cells: HTLA (HEK293-derived)
Nature of the experiment: PRESTO-TANGO β-arrestin recruitment. In kind it is cell-based. The procedure:
(§1) Assessment of receptor activation by compounds at all human aminergic receptors were carried out using a modified version of the PRESTO-TANGO method. […] The plate was spun down, and 5 μl of a 1:25 dilution (in DPBS) of polyethylenimine (PEI) derivative (Transporter 5, Polysciences) was added (1:4 cDNA to PEI ratio) and incubated for 20 min at room temperature (RT). […] Luminescence signal was detected using a plate-reader (SPARK, Tecan) with 100-ms integration time and a 100-ms delay between well reads.
On the technique in general: Arrestin recruitment assays detect the binding of arrestin to an activated receptor.

For the next experiment, the target named is T3, α2A receptor (Homo sapiens, UniProt P08913).
T3 construct: TANGO fusion module (own knowledge, Kroeze et al.: C-terminal V2 tail, TEV site and tTA); 1000000068; host or cells: HTLA (HEK293-derived)
T3 sequence (P08913 1-465): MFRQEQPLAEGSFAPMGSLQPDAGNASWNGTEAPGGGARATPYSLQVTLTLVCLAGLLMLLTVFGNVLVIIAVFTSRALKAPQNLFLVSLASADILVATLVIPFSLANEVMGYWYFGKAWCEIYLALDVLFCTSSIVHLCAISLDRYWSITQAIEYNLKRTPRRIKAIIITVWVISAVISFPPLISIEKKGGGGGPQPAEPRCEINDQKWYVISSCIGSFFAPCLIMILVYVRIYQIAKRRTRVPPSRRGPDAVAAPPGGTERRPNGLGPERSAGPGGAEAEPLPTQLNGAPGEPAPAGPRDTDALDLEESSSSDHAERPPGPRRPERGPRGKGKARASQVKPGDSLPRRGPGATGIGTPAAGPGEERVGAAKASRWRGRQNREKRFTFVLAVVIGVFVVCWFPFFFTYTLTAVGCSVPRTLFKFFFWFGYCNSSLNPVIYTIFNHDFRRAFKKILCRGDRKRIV
The experiment is described as follows: PRESTO-TANGO β-arrestin recruitment. The experiment is classed as cell-based. The note with it: panel screen.

In a further experiment the target is T4, D2 receptor (Homo sapiens, UniProt P14416).
T4 construct: TANGO fusion module (own knowledge, Kroeze et al.: C-terminal V2 tail, TEV site and tTA); 1000000068; host or cells: HTLA (HEK293-derived)
Nature of the experiment: cell-based. In kind it is cell-based. On the procedure: as §1

In the next experiment the target is T5, 5-HT1A receptor (Homo sapiens, UniProt P08908).
T5 construct: TANGO fusion module (own knowledge, Kroeze et al.: C-terminal V2 tail, TEV site and tTA); 1000000068; host or cells: HTLA (HEK293-derived)
T5 sequence (P08908 1-422): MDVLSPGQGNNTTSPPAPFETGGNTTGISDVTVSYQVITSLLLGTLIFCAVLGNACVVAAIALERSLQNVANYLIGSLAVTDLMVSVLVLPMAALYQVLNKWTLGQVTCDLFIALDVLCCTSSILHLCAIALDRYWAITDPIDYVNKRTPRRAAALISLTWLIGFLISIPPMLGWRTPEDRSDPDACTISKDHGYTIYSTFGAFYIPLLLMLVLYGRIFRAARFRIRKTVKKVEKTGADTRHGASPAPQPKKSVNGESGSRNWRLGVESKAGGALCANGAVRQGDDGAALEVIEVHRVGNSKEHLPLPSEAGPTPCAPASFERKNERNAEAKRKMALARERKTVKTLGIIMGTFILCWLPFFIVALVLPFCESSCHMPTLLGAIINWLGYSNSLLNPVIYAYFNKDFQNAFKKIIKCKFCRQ
Nature of the experiment: PRESTO-TANGO β-arrestin recruitment. In kind it is cell-based. The note with it: panel screen.

For another experiment, the target named is T6, H1 receptor (Homo sapiens, UniProt P35367).
T6 construct: TANGO fusion module (own knowledge, Kroeze et al.: C-terminal V2 tail, TEV site and tTA); 1000000068; host or cells: HTLA (HEK293-derived)
Nature of the experiment: PRESTO-TANGO β-arrestin recruitment. The experiment is classed as cell-based. The note with it: panel screen, 10 μM; read-out: agonist activity, % of control.

The target of another experiment is T7, M2 receptor (Homo sapiens, UniProt P08172).
T7 construct: TANGO fusion module (own knowledge, Kroeze et al.: C-terminal V2 tail, TEV site and tTA); 1000000068; host or cells: HTLA (HEK293-derived)
T7 sequence (P08172 1-466): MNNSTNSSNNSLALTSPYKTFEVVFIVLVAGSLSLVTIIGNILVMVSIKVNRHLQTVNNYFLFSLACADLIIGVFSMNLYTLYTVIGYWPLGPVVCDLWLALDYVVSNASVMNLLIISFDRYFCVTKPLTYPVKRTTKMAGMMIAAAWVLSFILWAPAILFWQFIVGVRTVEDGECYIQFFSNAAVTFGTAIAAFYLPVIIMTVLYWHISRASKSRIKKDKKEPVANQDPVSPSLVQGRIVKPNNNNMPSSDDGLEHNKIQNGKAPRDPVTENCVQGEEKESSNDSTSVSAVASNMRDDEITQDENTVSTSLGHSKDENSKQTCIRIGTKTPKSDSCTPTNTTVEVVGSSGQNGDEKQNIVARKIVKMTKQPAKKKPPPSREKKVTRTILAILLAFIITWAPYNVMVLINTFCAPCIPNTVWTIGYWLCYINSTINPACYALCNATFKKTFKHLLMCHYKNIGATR
The experiment is described as follows: PRESTO-TANGO β-arrestin recruitment. In kind it is cell-based.

The subject of another experiment is TAAR1. The note with it: ref Zilberg et al. ([51]); cited from earlier work.

T2 sequence (P28221 whole entry, the tested form may be a part): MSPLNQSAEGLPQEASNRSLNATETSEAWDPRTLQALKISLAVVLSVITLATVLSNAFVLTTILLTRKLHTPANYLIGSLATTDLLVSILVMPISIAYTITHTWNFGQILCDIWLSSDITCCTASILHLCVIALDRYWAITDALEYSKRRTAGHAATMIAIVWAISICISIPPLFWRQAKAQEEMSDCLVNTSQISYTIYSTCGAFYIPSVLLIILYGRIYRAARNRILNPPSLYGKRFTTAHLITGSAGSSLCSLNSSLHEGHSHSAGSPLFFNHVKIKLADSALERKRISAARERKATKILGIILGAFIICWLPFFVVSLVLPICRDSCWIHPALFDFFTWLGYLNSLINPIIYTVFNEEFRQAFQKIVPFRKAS
T4 sequence (P14416 whole entry, the tested form may be a part): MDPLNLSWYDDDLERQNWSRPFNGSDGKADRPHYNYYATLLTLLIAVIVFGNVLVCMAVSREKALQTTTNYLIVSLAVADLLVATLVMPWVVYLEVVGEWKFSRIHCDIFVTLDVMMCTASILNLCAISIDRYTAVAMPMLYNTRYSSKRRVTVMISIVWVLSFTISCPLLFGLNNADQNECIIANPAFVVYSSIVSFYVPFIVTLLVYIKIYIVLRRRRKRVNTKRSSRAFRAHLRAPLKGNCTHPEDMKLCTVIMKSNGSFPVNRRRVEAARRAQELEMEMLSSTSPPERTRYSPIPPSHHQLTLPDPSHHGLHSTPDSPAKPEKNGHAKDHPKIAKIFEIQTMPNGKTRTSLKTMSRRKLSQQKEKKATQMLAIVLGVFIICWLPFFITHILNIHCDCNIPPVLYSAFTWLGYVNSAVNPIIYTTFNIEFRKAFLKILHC
T6 sequence (P35367 whole entry, the tested form may be a part): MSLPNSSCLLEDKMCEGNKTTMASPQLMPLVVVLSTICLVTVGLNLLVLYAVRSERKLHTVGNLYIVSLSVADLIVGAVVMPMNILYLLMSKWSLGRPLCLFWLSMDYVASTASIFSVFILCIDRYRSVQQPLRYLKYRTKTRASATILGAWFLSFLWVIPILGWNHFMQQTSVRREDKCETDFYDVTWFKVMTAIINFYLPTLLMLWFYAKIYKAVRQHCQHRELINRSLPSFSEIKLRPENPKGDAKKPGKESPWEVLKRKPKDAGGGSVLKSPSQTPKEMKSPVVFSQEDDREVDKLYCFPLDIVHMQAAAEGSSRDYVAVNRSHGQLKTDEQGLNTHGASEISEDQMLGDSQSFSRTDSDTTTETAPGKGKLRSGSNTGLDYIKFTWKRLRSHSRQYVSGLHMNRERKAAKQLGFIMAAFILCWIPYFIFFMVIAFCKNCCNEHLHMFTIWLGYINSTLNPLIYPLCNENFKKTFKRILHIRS

On to `Cc1nc2n(c(=O)c1CCN1CCC(c3noc4cc(F)ccc34)CC1)CCCC2` [risperidone, reference compound], for which the “effect on PPI” value is on record as “increased PPI” with WT and TAAR1-KO mice [1] (TAAR1-KO mice); “general augmentation in PPI compared to the vehicle control” with WT and TAAR1-KO mice [1] (WT mice). Further, the effect on locomotion result in the experiment on WT and TAAR1-KO mice [2] (TAAR1-KO mice) is given as “significant reduction in locomotion”. Moreover, the “effect on MK-801–induced hyperlocomotion” value in the experiment on WT and TAAR1-KO mice [2] (WT mice, MK-801 0.35 mg/kg) was “significant decrease”. For the same molecule, the “effect on baseline locomotion” value in the experiment on WT and TAAR1-KO mice [2] (WT mice, versus vehicle) is given as “notable reduction”.
Take `C1=C(c2ccco2)CNCC1` [Compound 30]: the agonist type entry at hTAAR1 (TAAR1) is recorded as “full agonist”. The EC50 was 0.0316 µM at hTAAR1 (TAAR1, G protein recruitment assay, read-out: pEC50 (converted)); greater than 1 µM on 5-HT1D receptor; greater than 1 µM on D2 receptor (concentration-response curves); 10 µM at M2 receptor (concentration-response curves). The “fold more potent than Ulotaront” value at hTAAR1 (TAAR1 G protein recruitment) was greater than 25 fold. Besides, the “fold more potent than the reference agonist β-PEA” value on hTAAR1 (TAAR1 G protein recruitment) is ~ 10 fold. In addition, the maximum response (Emax) (usually the size of the effect at its maximum, as opposed to the concentration needed) stood at 112% on hTAAR1 (relative to the effect of the reference agonist β-PEA, read-out: Emax); 52% at 5-HT1D receptor; 54% on D2 receptor (concentration-response curves); 125% on M2 receptor (concentration-response curves). The “agonism at the 5-HT1D receptor” value on 5-HT1D receptor (panel screen) is given as “agonism”. For the same molecule, the “agonism at the α2A receptor” value on α2A receptor was “agonism”. For the same molecule, the “agonism at the D2 receptor” value on D2 receptor (panel screen) is listed as “agonism”. The “activation of 5-HT1A receptor” value at 5-HT1A receptor was “did not observe a considerable activation”. Besides, the activity at 10 µM on H1 receptor is 70%; at M2 receptor (panel screen, 10 μM, read-out: agonist activity, % of control) it was 55%.
For the molecule `CN1CC2c3ccccc3Oc3ccc(Cl)cc3C2C1` (centres unmarked) [asenapine], the TAAR1 agonism entry with TAAR1 is given as “potent TAAR1 agonist”.
